Laboratory results reported in patent US10844077B2, “Thiazolyl-containing compounds for treating proliferative diseases” (Dana-Farber Cancer Institute, Inc., priority 2014, dated 2020).
Several values for one entry are separate records, joined by “and”; a condition that tells them apart may be missing. Equal values may be shown once.

Columns and labels:
Test in all cases: KINATIV assay
Assay type in all cases: cell-based
Details in all cases: 1 μM, 90 minutes, BCWM.1 cells
NLK = NLK (Homo sapiens (Human), UniProt Q9UBE8)
In short: (§1)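 Quantitation by ACTIVX of probe-bound kinases from cell lysates labeled directly with ATP-biotin; compounds run in duplicate, controls in duplicate or quadruplicate.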

SRC = SRC (Homo sapiens (Human), UniProt P12931)
In short: as §1

FRK = FRK (Homo sapiens (Human), UniProt P42685)
In short: as §1

MAP3K2 = MAP3K2 (Homo sapiens (Human), UniProt Q9Y2U5)
In short: as §1

ILK = ILK (Homo sapiens (Human), UniProt Q13418)
ILK, sequence (Q13418 whole entry): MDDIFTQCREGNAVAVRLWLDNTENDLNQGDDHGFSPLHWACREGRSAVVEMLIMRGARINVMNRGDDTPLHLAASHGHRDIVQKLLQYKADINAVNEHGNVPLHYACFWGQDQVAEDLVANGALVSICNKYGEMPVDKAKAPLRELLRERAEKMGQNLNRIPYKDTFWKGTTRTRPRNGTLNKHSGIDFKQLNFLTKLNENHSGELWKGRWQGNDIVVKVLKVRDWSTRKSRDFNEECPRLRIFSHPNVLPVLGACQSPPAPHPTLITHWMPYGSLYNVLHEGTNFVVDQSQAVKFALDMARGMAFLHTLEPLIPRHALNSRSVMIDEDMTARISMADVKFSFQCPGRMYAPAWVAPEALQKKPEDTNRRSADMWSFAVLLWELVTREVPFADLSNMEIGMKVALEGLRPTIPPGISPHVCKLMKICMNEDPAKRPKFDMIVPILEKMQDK
In short: as §1

AurB = AurB (Homo sapiens (Human), UniProt Q96GD4)
In short: as §1

NEK9 = NEK9 (Homo sapiens (Human), UniProt Q8TD19)
In short: as §1

MAP3K5 = MAP3K5 (Homo sapiens (Human), UniProt Q99683)
In short: as §1

TYK2 domain2 = TYK2 domain2 (Homo sapiens (Human), UniProt P29597)
In short: as §1

TLK1 = TLK1 (Homo sapiens (Human), UniProt Q9UKI8)
In short: as §1

NEK6, NEK7 = system: NEK6, NEK7
In short: as §1

CDC2 = CDC2 (Homo sapiens (Human), UniProt P06493)
In short: as §1

MAP2K1 = MAP2K1 (Homo sapiens (Human), UniProt Q02750)
In short: as §1

BLK = BLK (Homo sapiens (Human), UniProt P51451)
In short: as §1

CK2a1 = CK2a1 (Homo sapiens (Human), UniProt P68400)
CK2a1, sequence (P68400 whole entry): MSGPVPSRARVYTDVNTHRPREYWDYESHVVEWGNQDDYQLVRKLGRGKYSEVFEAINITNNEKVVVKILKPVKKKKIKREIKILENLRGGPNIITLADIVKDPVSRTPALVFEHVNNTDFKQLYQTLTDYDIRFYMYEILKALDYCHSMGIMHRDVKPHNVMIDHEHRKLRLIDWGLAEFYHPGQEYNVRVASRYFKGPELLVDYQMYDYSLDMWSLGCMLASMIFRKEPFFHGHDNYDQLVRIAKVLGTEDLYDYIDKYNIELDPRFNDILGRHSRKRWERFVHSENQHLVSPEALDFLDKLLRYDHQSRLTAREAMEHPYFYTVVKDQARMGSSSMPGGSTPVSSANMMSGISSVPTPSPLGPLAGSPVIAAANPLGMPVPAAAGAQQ
In short: as §1

MAP3K4 = MAP3K4 (Homo sapiens (Human), UniProt Q9Y6R4)
In short: as §1

FYN, SRC, YES = system: FYN, SRC, YES
In short: as §1

ACK = ACK (Homo sapiens (Human), UniProt Q07912)
In short: as §1

KHS1 = KHS1 (Homo sapiens (Human), UniProt Q9Y4K4)
KHS1, sequence (Q9Y4K4 whole entry): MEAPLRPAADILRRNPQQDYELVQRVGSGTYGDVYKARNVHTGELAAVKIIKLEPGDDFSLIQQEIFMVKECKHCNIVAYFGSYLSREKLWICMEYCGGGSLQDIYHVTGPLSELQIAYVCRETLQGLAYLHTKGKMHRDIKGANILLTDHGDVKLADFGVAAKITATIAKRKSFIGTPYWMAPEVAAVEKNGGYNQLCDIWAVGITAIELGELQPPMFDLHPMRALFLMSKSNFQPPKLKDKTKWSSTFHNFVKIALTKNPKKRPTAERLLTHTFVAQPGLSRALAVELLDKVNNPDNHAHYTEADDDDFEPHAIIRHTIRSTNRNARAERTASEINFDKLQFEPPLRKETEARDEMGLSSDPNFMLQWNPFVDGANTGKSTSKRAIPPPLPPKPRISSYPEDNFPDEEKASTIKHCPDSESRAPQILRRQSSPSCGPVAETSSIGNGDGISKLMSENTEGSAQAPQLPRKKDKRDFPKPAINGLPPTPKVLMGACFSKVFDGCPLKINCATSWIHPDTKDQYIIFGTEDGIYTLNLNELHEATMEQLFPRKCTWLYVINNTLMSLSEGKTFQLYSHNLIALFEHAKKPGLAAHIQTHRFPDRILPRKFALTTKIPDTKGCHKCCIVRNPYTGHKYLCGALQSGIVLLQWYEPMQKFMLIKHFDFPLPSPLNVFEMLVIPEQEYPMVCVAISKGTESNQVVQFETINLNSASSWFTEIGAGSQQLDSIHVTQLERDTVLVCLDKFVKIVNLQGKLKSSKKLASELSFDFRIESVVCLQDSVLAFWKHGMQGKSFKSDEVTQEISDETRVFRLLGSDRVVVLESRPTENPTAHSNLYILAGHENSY
In short: as §1

MAP3K15, MAP3K5, MAP3K6 = system: MAP3K15, MAP3K5, MAP3K6
In short: as §1

NEK3 = NEK3 (Homo sapiens (Human), UniProt P51956)
NEK3, sequence (P51956 whole entry): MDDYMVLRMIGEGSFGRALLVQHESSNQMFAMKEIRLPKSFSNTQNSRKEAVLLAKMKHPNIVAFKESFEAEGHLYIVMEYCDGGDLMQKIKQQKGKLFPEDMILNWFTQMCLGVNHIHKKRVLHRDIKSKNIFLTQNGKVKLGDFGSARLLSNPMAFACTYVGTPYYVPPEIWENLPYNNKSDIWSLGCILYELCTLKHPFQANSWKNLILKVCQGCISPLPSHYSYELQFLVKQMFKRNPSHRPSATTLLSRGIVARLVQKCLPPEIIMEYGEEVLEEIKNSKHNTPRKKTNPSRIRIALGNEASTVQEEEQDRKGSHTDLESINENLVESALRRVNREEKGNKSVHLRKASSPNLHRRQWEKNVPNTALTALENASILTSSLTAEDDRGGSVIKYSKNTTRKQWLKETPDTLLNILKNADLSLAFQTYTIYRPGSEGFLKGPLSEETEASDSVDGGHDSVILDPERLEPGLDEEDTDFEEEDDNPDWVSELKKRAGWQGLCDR
In short: as §1

SNRK = SNRK (Homo sapiens (Human), UniProt Q9NRH2)
In short: as §1

NEK1 = NEK1 (Homo sapiens (Human), UniProt Q96PY6)
In short: as §1

MAP2K6 = MAP2K6 (Homo sapiens (Human), UniProt P52564)
In short: as §1

MYO3A, MYO3B = system: MYO3A, MYO3B
In short: as §1

SRPK1, SRPK2 = system: SRPK1, SRPK2
In short: as §1

NEK4 = NEK4 (Homo sapiens (Human), UniProt P51957)
In short: as §1

CaMK4 = CaMK4 (Homo sapiens (Human), UniProt Q16566)
CaMK4, sequence (Q16566 whole entry): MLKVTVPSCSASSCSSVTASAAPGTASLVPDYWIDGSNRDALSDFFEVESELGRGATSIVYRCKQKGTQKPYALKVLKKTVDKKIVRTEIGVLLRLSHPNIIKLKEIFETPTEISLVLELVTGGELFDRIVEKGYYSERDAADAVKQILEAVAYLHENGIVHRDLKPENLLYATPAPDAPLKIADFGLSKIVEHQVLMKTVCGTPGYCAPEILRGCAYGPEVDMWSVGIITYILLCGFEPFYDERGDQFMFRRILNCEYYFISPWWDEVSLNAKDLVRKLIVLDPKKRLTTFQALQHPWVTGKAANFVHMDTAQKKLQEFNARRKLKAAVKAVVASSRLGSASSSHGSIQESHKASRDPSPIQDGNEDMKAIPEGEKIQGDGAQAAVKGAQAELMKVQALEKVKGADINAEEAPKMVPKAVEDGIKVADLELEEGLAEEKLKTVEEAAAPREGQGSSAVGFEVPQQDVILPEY
In short: as §1

p70S6K = p70S6K (Homo sapiens (Human), UniProt P23443)
In short: as §1

CDK6 = CDK6 (Homo sapiens (Human), UniProt Q00534)
In short: as §1

MASTL = MASTL (Homo sapiens (Human), UniProt Q96GX5)
MASTL, sequence (Q96GX5 whole entry): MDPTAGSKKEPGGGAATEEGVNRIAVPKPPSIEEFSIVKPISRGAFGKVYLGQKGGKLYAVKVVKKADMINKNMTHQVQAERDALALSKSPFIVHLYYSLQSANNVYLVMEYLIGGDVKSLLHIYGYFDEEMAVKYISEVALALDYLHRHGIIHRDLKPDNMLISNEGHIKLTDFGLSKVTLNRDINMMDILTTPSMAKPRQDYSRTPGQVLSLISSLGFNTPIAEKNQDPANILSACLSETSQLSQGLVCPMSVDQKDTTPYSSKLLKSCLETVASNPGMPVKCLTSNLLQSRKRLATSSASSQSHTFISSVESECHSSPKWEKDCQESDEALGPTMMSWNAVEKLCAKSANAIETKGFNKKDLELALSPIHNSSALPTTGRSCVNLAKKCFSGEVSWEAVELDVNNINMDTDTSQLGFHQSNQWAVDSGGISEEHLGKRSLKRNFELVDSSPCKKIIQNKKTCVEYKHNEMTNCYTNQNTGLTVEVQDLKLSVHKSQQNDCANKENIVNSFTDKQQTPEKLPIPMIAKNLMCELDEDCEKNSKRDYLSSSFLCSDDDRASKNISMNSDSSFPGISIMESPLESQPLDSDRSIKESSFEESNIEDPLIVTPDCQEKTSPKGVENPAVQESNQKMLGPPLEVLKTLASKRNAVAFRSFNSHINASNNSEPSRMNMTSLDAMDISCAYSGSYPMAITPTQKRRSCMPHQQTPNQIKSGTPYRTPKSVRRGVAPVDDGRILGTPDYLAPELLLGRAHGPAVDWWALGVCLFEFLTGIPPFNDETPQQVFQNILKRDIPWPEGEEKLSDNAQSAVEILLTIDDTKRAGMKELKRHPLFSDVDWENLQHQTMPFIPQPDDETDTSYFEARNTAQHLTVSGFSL
In short: as §1

PEK = PEK (Homo sapiens (Human), UniProt Q9NZJ5)
In short: as §1

MARK1, MARK2 = system: MARK1, MARK2
In short: as §1

p38d, p38g = system: p38d, p38g
In short: as §1

PKN1 = PKN1 (Homo sapiens (Human), UniProt Q16512)
PKN1, sequence (Q16512 whole entry): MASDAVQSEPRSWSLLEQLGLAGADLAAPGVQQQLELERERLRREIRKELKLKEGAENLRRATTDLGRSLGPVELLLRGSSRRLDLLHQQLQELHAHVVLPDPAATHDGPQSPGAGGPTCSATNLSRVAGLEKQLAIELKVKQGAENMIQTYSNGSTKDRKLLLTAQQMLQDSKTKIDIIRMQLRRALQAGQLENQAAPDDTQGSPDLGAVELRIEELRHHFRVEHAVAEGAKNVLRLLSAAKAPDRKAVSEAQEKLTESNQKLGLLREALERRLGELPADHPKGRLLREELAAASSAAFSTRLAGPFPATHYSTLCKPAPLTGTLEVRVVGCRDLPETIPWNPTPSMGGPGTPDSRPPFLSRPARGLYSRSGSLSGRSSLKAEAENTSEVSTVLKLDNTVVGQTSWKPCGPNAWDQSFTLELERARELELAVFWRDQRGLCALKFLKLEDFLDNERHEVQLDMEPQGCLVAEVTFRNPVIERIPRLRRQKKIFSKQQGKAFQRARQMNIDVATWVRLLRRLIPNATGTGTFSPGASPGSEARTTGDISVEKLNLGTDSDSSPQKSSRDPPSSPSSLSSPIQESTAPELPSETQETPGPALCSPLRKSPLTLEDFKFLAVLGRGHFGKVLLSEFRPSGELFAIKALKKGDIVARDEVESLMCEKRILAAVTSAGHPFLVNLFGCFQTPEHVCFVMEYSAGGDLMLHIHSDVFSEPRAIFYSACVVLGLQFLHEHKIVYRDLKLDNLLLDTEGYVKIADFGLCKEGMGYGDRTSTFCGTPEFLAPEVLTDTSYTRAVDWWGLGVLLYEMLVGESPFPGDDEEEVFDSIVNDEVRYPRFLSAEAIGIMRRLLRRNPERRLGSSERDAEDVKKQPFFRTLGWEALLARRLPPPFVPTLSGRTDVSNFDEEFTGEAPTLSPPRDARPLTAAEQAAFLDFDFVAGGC
In short: as §1

BRAF = BRAF (Homo sapiens (Human), UniProt P15056)
In short: as §1

p38b = p38b (Homo sapiens (Human), UniProt Q15759)
In short: as §1

Wnk1, Wnk2 = system: Wnk1, Wnk2
In short: as §1

OSR1 = OSR1 (Homo sapiens (Human), UniProt O95747)
In short: as §1

MAP3K6 = MAP3K6 (Homo sapiens (Human), UniProt O95382)
In short: as §1

MAST1, MAST2 = system: MAST1, MAST2
In short: as §1

STLK6 = STLK6 (Homo sapiens (Human), UniProt Q9C0K7)
STLK6, sequence (Q9C0K7 whole entry): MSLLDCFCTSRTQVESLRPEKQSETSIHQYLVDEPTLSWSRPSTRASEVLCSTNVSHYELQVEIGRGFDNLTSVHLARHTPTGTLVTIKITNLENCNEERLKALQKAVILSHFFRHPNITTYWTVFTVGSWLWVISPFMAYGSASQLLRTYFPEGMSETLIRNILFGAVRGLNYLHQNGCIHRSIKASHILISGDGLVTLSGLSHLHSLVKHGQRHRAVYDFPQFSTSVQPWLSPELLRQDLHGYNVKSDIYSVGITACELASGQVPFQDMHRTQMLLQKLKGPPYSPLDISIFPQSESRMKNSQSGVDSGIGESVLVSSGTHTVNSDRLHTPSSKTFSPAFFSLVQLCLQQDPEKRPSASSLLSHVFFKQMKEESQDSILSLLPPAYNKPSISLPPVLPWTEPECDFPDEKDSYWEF
In short: as §1

SMILES: C=CC(=O)N1CCCCC(Nc2nccc(Nc3ncc(C(=O)Nc4c(C)cccc4C)s3)n2)C1 (centres unmarked) [Example I-7]
- % change of MS signal compared to control sample (NLK): 4.2%
- % change of MS signal compared to control sample (SRC): >90%
- % change of MS signal compared to control sample (FRK): 93.3%
- % change of MS signal compared to control sample (MAP3K2): 4.9%
- % change of MS signal compared to control sample (ILK): 17.1% and 28.2%
- % change of MS signal compared to control sample (AurB): −6.1%
- % change of MS signal compared to control sample (NEK9): 2.5% and 1.1%
- % change of MS signal compared to control sample (MAP3K5): −9.3%
- % change of MS signal compared to control sample (TYK2 domain2): −46.4%
- % change of MS signal compared to control sample (TLK1): 1.8% and 5.5%
- % change of MS signal compared to control sample (NEK6, NEK7): −8.4%
- % change of MS signal compared to control sample (CDC2): −16.2%
- % change of MS signal compared to control sample (MAP2K1): −3.7%
- % change of MS signal compared to control sample (BLK): >95%
- % change of MS signal compared to control sample (CK2a1): 14.3%
- % change of MS signal compared to control sample (MAP3K4): −24.2%
- % change of MS signal compared to control sample (FYN, SRC, YES): 98.4%
- % change of MS signal compared to control sample (ACK): 80.7% and 88.5%
- % change of MS signal compared to control sample (KHS1): −5.9%
- % change of MS signal compared to control sample (MAP3K15, MAP3K5, MAP3K6): 4.0%
- % change of MS signal compared to control sample (NEK3): 15.6%
- % change of MS signal compared to control sample (SNRK): 40.7% and 58.7%
- % change of MS signal compared to control sample (NEK1): 11.4%
- % change of MS signal compared to control sample (MAP2K6): 5.9% and 2.5%
- % change of MS signal compared to control sample (MYO3A, MYO3B): 17.2%
- % change of MS signal compared to control sample (SRPK1, SRPK2): 17.3%
- % change of MS signal compared to control sample (NEK4): 7.9%
- % change of MS signal compared to control sample (CaMK4): −24.9%
- % change of MS signal compared to control sample (p70S6K): −70.1%
- % change of MS signal compared to control sample (CDK6): 4.1%
- % change of MS signal compared to control sample (MASTL): −10.9% and −13.8%
- % change of MS signal compared to control sample (PEK): 2.6%
- % change of MS signal compared to control sample (MARK1, MARK2): 7.9%
- % change of MS signal compared to control sample (p38d, p38g): 1.7%
- % change of MS signal compared to control sample (PKN1): 4.2%
- % change of MS signal compared to control sample (BRAF): 21.7%
- % change of MS signal compared to control sample (p38b): −1.5%
- % change of MS signal compared to control sample (Wnk1, Wnk2): −8.6%
- % change of MS signal compared to control sample (OSR1): 22.0%
- % change of MS signal compared to control sample (MAP3K6): −21.3%
- % change of MS signal compared to control sample (MAST1, MAST2): −35.0%
- % change of MS signal compared to control sample (STLK6): −16.3%

SMILES: C=CC(=O)N1CCC(Cn2ccc(Nc3ncc(C(=O)Nc4c(C)cccc4Cl)s3)n2)C1 (centres unmarked) [II-1]
- % change of MS signal compared to control sample (NLK): 3.7%
- % change of MS signal compared to control sample (SRC): >90%
- % change of MS signal compared to control sample (FRK): 84.0%
- % change of MS signal compared to control sample (MAP3K2): 21.3%
- % change of MS signal compared to control sample (AurB): −7.2%
- % change of MS signal compared to control sample (NEK9): −1.0% and −0.1%
- % change of MS signal compared to control sample (MAP3K5): −22.9%
- % change of MS signal compared to control sample (TYK2 domain2): −19.0%
- % change of MS signal compared to control sample (TLK1): 7.1% and 5.7%
- % change of MS signal compared to control sample (NEK6, NEK7): −0.2%
- % change of MS signal compared to control sample (CDC2): −5.2% and 2.7%
- % change of MS signal compared to control sample (MAP2K1): −23.4%
- % change of MS signal compared to control sample (BLK): >95%
- % change of MS signal compared to control sample (CK2a1): 24.7%
- % change of MS signal compared to control sample (MAP3K4): −23.9%
- % change of MS signal compared to control sample (FYN, SRC, YES): 88.1%
- % change of MS signal compared to control sample (ACK): 51.7% and 50.8%
- % change of MS signal compared to control sample (KHS1): −0.6%
- % change of MS signal compared to control sample (MAP3K15, MAP3K5, MAP3K6): 7.5%
- % change of MS signal compared to control sample (NEK3): 8.1%
- % change of MS signal compared to control sample (SNRK): 47.8% and 59.8%
- % change of MS signal compared to control sample (NEK1): 14.9%
- % change of MS signal compared to control sample (MAP2K6): −8.3% and −12.6%
- % change of MS signal compared to control sample (MYO3A, MYO3B): 12.9%
- % change of MS signal compared to control sample (SRPK1, SRPK2): 0.0%
- % change of MS signal compared to control sample (NEK4): 18.5%
- % change of MS signal compared to control sample (CaMK4): −10.3%
- % change of MS signal compared to control sample (p70S6K): −65.4%
- % change of MS signal compared to control sample (CDK6): 6.0%
- % change of MS signal compared to control sample (MASTL): −16.7% and −8.2%
- % change of MS signal compared to control sample (PEK): −31.0%
- % change of MS signal compared to control sample (MARK1, MARK2): 20.9%
- % change of MS signal compared to control sample (p38d, p38g): −6.6%
- % change of MS signal compared to control sample (PKN1): 20.9%
- % change of MS signal compared to control sample (BRAF): 6.9%
- % change of MS signal compared to control sample (p38b): −19.0%
- % change of MS signal compared to control sample (Wnk1, Wnk2): −3.8%
- % change of MS signal compared to control sample (OSR1): 16.4%
- % change of MS signal compared to control sample (MAP3K6): 18.9%
- % change of MS signal compared to control sample (MAST1, MAST2): −81.3%
- % change of MS signal compared to control sample (STLK6): −0.8%

SMILES: C=CC(=O)N1CCC(CNc2nccc(Nc3ncc(C(=O)Nc4c(C)cccc4C)s3)n2)C1 (racemic) [Example I-8]
- % change of MS signal compared to control sample (NLK): 6.1%
- % change of MS signal compared to control sample (SRC): >90%
- % change of MS signal compared to control sample (FRK): 95.3%
- % change of MS signal compared to control sample (MAP3K2): 3.5%
- % change of MS signal compared to control sample (ILK): 19.4% and 36.6%
- % change of MS signal compared to control sample (AurB): −14.3%
- % change of MS signal compared to control sample (NEK9): −1.3% and −0.3%
- % change of MS signal compared to control sample (MAP3K5): −0.7%
- % change of MS signal compared to control sample (TYK2 domain2): −44.6%
- % change of MS signal compared to control sample (NEK6, NEK7): −11.0%
- % change of MS signal compared to control sample (MAP2K1): 1.0%
- % change of MS signal compared to control sample (BLK): >95%
- % change of MS signal compared to control sample (CK2a1): 13.9%
- % change of MS signal compared to control sample (MAP3K4): 12.8%
- % change of MS signal compared to control sample (FYN, SRC, YES): 97.9%
- % change of MS signal compared to control sample (ACK): 69.9% and 82.4%
- % change of MS signal compared to control sample (KHS1): −8.4%
- % change of MS signal compared to control sample (MAP3K15, MAP3K5, MAP3K6): 2.2%
- % change of MS signal compared to control sample (NEK3): 3.2%
- % change of MS signal compared to control sample (SNRK): 45.1% and 59.1%
- % change of MS signal compared to control sample (NEK1): 12.8%
- % change of MS signal compared to control sample (MYO3A, MYO3B): 23.1%
- % change of MS signal compared to control sample (SRPK1, SRPK2): 33.2%
- % change of MS signal compared to control sample (NEK4): 15.2%
- % change of MS signal compared to control sample (CaMK4): −26.3%
- % change of MS signal compared to control sample (p70S6K): −36.8%
- % change of MS signal compared to control sample (CDK6): 4.5%
- % change of MS signal compared to control sample (MASTL): −16.9% and −9.5%
- % change of MS signal compared to control sample (PEK): 3.3%
- % change of MS signal compared to control sample (MARK1, MARK2): 14.6%
- % change of MS signal compared to control sample (p38d, p38g): 3.3%
- % change of MS signal compared to control sample (PKN1): 13.7%
- % change of MS signal compared to control sample (BRAF): 11.1%
- % change of MS signal compared to control sample (p38b): 12.0%
- % change of MS signal compared to control sample (Wnk1, Wnk2): −16.4%
- % change of MS signal compared to control sample (OSR1): 27.9%
- % change of MS signal compared to control sample (MAP3K6): −8.1%
- % change of MS signal compared to control sample (MAST1, MAST2): −32.5%
- % change of MS signal compared to control sample (STLK6): −12.9%
